Results reported in PubChem BioAssay (NCI).
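48-hour exposure; five concentrations; linearly interpolated endpoints. Definition used: TGI = concentration required for complete inhibition of growth.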

Tests used:
Experiment in all cases: NCI tumour cell line growth inhibition, 48 h
[1] = test system: ACHN renal
[2] = test system: CCRF-CEM leukemia
[3] = test system: DU-145 prostate
[4] = test system: HOP-62 NSCLC
[5] = test system: KM12 colon
[6] = test system: MALME-3M melanoma
[7] = test system: OVCAR-5 ovarian
[8] = test system: SF-295 CNS
[9] = test system: SNB-19 CNS
[10] = test system: UO-31 renal

Row | Structure (SMILES) | TGI [1] | TGI [2] | TGI [3] | TGI [4] | TGI [5] | TGI [6] | TGI [7] | TGI [8] | TGI [9] | TGI [10]
1 | CC12c3c4ccc(C=O)c3Oc3ccc(C=O)c(c31)Oc1ccc(C=O)c(c12)O4 | > 25 µM | > 25 µM | > 25 µM | > 25 µM | > 25 µM | > 25 µM | > 25 µM | > 25 µM | > 25 µM | > 25 µM
2 | O=C(c1ccccc1)c1ccc2c(c1)NC(=O)c1ccccc1SSc1ccccc1C(=O)N2 | > 100 µM | > 100 µM | > 100 µM | > 100 µM | > 100 µM | > 100 µM | > 100 µM | > 100 µM | > 100 µM | > 100 µM
3 | O=c1onc2n1-c1cc(Cl)ccc1C(=S)N1CSCC21 (stereo not given) | > 100 µM | > 100 µM | > 100 µM | > 100 µM | > 100 µM | > 100 µM | > 100 µM | > 100 µM | > 100 µM | > 100 µM
4 | OCCCc1ccc2c(c1)[C@H](CO)[C@@H](c1ccc(O)cc1)O2 | > 100 µM | > 100 µM | > 100 µM | > 100 µM | > 100 µM | 29.2 µM | > 100 µM | > 100 µM | > 100 µM | > 100 µM
5 | Clc1sc(Cl)c2c1[C@@H](Cl)C[C@@H]2Br | > 100 µM | 88.1 µM | > 100 µM | > 100 µM | > 100 µM | > 100 µM | > 100 µM | > 100 µM | > 100 µM | > 100 µM
6 | CC1OC(O[C@H]2C3C=CO[C@@H](OC4OC(CO)C(O)C(O)C4O)C3[C@@]3(COC(=O)/C=C/c4ccccc4)O[C@@H]23)C(O)C(O)C1O (stereo not given in full) | > 100 µM | > 100 µM | > 100 µM | > 100 µM | > 100 µM | > 100 µM | > 100 µM | > 100 µM | > 100 µM | > 100 µM
7 | C=CCn1c(=O)ccn(/C(=C/C(=O)OCC)C(=O)OCC)c1=O | 13.9 µM | 6.04 µM | 50.2 µM | 44.4 µM | 32.9 µM | 25.4 µM | 29.9 µM | > 87.7 µM | > 58.3 µM | 28.6 µM
8 | COc1ccc(-c2nc3ccccc3c(=S)n2OC(C)=O)cc1 | > 25 µM | > 25 µM | > 25 µM | > 25 µM | > 25 µM | 20.4 µM | > 25 µM | > 25 µM | > 25 µM | > 25 µM
9 | COc1cc(C=O)ccc1O | > 100 µM | > 100 µM | > 100 µM | > 100 µM | > 100 µM | > 100 µM | > 100 µM | > 100 µM | > 100 µM | > 100 µM
10 | COC(=O)c1ccccc1CC1Cc2cccc(C)c2C1=O (stereo not given) | > 100 µM | > 100 µM | > 100 µM | > 100 µM | 66.6 µM | 48.3 µM | > 100 µM | > 100 µM | > 100 µM | 67.2 µM
11 | O=c1c2c(no[n+]2[O-])c2ccccc2n1-c1ccccc1 | 42.7 µM | 7.21 µM | > 74.2 µM | 22.5 µM | 22 µM | 14.5 µM | 21.9 µM | 23.5 µM | 25 µM | 16.6 µM
12 | Cc1ccsc1/C=N/Nc1cnccn1 | > 100 µM | > 100 µM | > 100 µM | > 100 µM | > 100 µM | > 100 µM | > 100 µM | > 100 µM | > 100 µM | > 100 µM
13 | CCN(CC)c1ccc(/C=C/c2ccnc3ccccc23)cc1 | > 100 µM | > 100 µM | > 100 µM | > 100 µM | > 100 µM | > 100 µM | > 100 µM | > 100 µM | > 100 µM | > 100 µM
14 | O=C(O)C(O)C(O)C(O)C(O)CO (stereo not given) | > 100 µM | > 100 µM | > 100 µM | > 100 µM | > 100 µM | > 100 µM | > 100 µM | > 100 µM | > 100 µM | > 100 µM
15 | COc1cc2c(cc1OCCCN1C(=O)c3cccc4cccc(c34)C1=O)N=C[C@@H]1CCCN1C2=O | > 63.4 µM | 22.2 µM | > 100 µM | > 100 µM | > 49.8 µM | 35.1 µM | > 100 µM | > 100 µM | > 100 µM | > 71 µM
16 | O=C(CCSC1=NCCCN1)c1ccc(F)cc1 | 31.1 µM | 11.6 µM | 36 µM | > 68.9 µM | 46.6 µM | 19.1 µM | 29.9 µM | 97.3 µM | 42.7 µM | 20.6 µM
17 | CC(C)N1CCN(c2ccc(OCC3COC(Cn4cncn4)(c4ccc(Cl)cc4Cl)O3)cc2)CC1 (stereo not given) | 47.1 µM | 32.5 µM | 31.5 µM | 28.5 µM | 28.8 µM | 22.2 µM | 29.8 µM | 26.6 µM | > 57.4 µM | > 42.5 µM
18 | O=C1c2cccc3cccc(c23)C(=O)N1CCCNCCCCNCCCNCCCN1C(=O)c2cccc3cccc(c23)C1=O | 7.43 µM | > 100 µM | 1.53 µM | 3.6 µM | 1.83 µM | 1.25 µM | 2.76 µM | 22.7 µM | 1.58 µM | 18.6 µM
